Structures can show the parent of a compound that is named as a salt.
Target: T1, mTOR (Homo sapiens, UniProt P42345)
T1 construct: human mTOR amino acids from 1360 to 2549; purchased Invitrogen 4753; host or cells: insect cells
Assay: mTOR kinase assay (TR-FRET, for comparative purposes)
Assay type: biochemical
Conditions: for inhibition at 1 µM: read-out: mTOR % inhibition @ 1 μM, mean inhibition at 1 μM test compound, 40 μM ATP

T1 sequence (P42345 1360-2549): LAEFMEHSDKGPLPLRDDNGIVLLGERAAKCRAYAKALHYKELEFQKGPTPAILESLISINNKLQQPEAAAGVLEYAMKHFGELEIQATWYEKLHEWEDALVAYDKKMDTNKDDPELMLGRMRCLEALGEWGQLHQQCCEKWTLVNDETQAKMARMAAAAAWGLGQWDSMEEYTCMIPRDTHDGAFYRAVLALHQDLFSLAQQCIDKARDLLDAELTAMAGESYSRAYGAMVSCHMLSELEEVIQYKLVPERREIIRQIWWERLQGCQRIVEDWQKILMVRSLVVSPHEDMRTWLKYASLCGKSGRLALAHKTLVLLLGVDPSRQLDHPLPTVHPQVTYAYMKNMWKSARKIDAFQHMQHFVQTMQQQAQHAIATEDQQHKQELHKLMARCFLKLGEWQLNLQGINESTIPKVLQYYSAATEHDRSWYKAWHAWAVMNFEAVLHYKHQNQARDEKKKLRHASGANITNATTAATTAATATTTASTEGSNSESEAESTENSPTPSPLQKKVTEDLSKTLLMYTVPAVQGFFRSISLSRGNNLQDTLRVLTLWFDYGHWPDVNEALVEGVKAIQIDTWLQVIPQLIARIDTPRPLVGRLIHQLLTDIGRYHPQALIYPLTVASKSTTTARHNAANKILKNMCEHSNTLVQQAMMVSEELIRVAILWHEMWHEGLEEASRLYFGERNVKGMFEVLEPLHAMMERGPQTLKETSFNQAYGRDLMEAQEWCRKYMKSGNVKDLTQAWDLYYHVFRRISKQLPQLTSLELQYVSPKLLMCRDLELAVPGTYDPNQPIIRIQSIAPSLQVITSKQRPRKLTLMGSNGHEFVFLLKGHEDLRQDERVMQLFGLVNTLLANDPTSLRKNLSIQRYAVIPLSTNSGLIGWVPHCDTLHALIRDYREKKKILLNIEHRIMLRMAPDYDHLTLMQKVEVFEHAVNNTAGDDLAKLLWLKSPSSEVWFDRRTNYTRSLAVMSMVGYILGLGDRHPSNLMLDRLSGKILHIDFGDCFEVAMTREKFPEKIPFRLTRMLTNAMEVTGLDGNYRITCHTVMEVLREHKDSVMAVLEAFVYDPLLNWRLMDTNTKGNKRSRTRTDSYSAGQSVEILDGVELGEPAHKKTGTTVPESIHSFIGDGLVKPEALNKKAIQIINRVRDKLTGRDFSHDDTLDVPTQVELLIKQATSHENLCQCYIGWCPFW

SMILES | inhibition at 1 µM | mTOR % inhibition @ 1 μM (mean inhibition at 1 μM test compound, 40 μM ATP)
CCOCc1c(-c2cc3cc(C)cc(OC)c3s2)c2c(N)ncnn2c1CN1CCN(C(C)=O)CC1 [Example 20, 1-(4-{[4-Amino-6-(ethoxymethyl)-5-(7-methoxy-5-methyl-1-benzothiophen-2-yl)pyrrolo[2,1-f]-[1,2,4]triazin-7-yl]methyl}piperazin-1-yl)ethanone] | 31.3% | 
CCCCOCc1c(-c2cc3cc(C)cc(OC)c3s2)c2c(N)ncnn2c1CN1CCNCC1 [Example 23, 6-(Butoxymethyl)-5-(7-methoxy-5-methyl-1-benzothiophen-2-yl)-7-(piperazin-1-ylmethyl)pyrrolo[2,1-f][1,2,4]triazin-4-amine formiate] | 11.6% | 
CCCOCc1c(-c2cc3cc(C)cc(OC)c3s2)c2c(N)ncnn2c1CN1CCNCC1 [Example 24, 5-(7-Methoxy-5-methyl-1-benzothiophen-2-yl)-7-(piperazin-1-ylmethyl)-6-(propoxymethyl)pyrrolo[2,1-f][1,2,4]triazin-4-amine bis(formiate)] | 6.3% | 
COc1cc(C)cc2cc(-c3c(COCC4CC4)c(CN4CCNCC4)n4ncnc(N)c34)sc12 [Example 25, 6-[(Cyclopropylmethoxy)methyl]-5-(7-methoxy-5-methyl-1-benzothiophen-2-yl)-7-(piperazin-1-ylmethyl)pyrrolo[2,1-f][1,2,4]triazin-4-amine bis(formiate)] | 3.5% | 
COc1cc(C)cc2cc(-c3c(COC(C)C)c(CN4CCNCC4)n4ncnc(N)c34)sc12 [Example 27, 6-(Isopropoxymethyl)-5-(7-methoxy-5-methyl-1-benzothiophen-2-yl)-7-(piperazin-1-ylmethyl)pyrrolo[2,1-f][1,2,4]triazin-4-amine formiate] | 5.9% | 
COc1cc(C)cc2cc(-c3c(COCC(F)(F)F)c(CN4CCNCC4)n4ncnc(N)c34)sc12 [Example 29, 5-(7-Methoxy-5-methyl-1-benzothiophen-2-yl)-7-(piperazin-1-ylmethyl)-6-[(2,2,2-trifluoroethoxy)methyl]pyrrolo[2,1-f][1,2,4]triazin-4-amine formiate] | 28.5% | 
COC(=O)COCc1c(-c2cc3cc(C)cc(OC)c3s2)c2c(N)ncnn2c1CN1CCNCC1 [Example 31, Methyl {[4-amino-5-(7-methoxy-5-methyl-1-benzothiophen-2-yl)-7-(piperazin-1-ylmethyl)pyrrolo[2,1-f][1,2,4]triazin-6-yl]methoxy}acetate] | 16.3% | 
COc1cc(C)cc2cc(-c3c(COCC(=O)O)c(CN4CCNCC4)n4ncnc(N)c34)sc12 [Example 32, {[4-Amino-5-(7-methoxy-5-methyl-1-benzothiophen-2-yl)-7-(piperazin-1-ylmethyl)pyrrolo[2,1-f][1,2,4]triazin-6-yl]methoxy}acetic acid] | 1.6% | 
COc1cc(C)cc2cc(-c3c(COCC(N)=O)c(CN4CCNCC4)n4ncnc(N)c34)sc12 [Example 33, 2-{[4-Amino-5-(7-methoxy-5-methyl-1-benzothiophen-2-yl)-7-(piperazin-1-ylmethyl)pyrrolo[2,1-f][1,2,4]triazin-6-yl]methoxy}acetamide] | 0.9% | 
COc1cc(C)cc2cc(-c3c(COc4ccccc4)c(CN4CCNCC4)n4ncnc(N)c34)sc12 [Example 35, 5-(7-Methoxy-5-methyl-1-benzothiophen-2-yl)-6-(phenoxymethyl)-7-(piperazin-1-ylmethyl)pyrrolo[2,1-f][1,2,4]triazin-4-amine bis(formiate)] | 1.4% | 
CNCc1c(-c2cc3cc(C)cc(OC)c3s2)c2c(N)ncnn2c1CN1CCNCC1 [Example 36, 5-(7-Methoxy-5-methyl-1-benzothiophen-2-yl)-6-[(methylamino)methyl]-7-(piperazin-1-ylmethyl)pyrrolo[2,1-f][1,2,4]triazin-4-amine trihydrochloride] | 14.4% | 
COc1cc(C)cc2cc(-c3c(CN(C)C)c(CN4CCNCC4)n4ncnc(N)c34)sc12 [Example 37, 6-[(Dimethylamino)methyl]-5-(7-methoxy-5-methyl-1-benzothiophen-2-yl)-7-(piperazin-1-ylmethyl)pyrrolo[2,1-f][1,2,4]triazin-4-amine trihydrochloride] | 8.6% | 
CCN(CC)Cc1c(-c2cc3cc(C)cc(OC)c3s2)c2c(N)ncnn2c1CN1CCNCC1 [Example 43, 6-[(Diethylamino)methyl]-5-(7-methoxy-5-methyl-1-benzothiophen-2-yl)-7-(piperazin-1-ylmethyl)pyrrolo[2,1-f][1,2,4]triazin-4-amine trihydrochloride] | 10.1% | 
COc1cc(C)cc2cc(-c3c(CNCC(=O)O)c(CN4CCNCC4)n4ncnc(N)c34)sc12 [Example 48, N-{[4-Amino-5-(7-methoxy-5-methyl-1-benzothiophen-2-yl)-7-(piperazin-1-ylmethyl)pyrrolo[2,1-f]-[1,2,4]triazin-6-yl]methyl}glycine trihydrochloride] | 4.1% | 
COc1cc(C)cc2cc(-c3c(CN4CCNC(=O)C4)c(CN4CCN(C=O)CC4)n4ncnc(N)c34)sc12 [Example 58, 4-({4-Amino-5-(7-methoxy-5-methyl-1-benzothiophen-2-yl)-6-[(3-oxopiperazin-1-yl)methyl]pyrrolo[2,1-f][1,2,4]triazin-7-yl}methyl)piperazine-1-carbaldehyde formiate] | 4% | 
COc1cc(C)cc2cc(-c3c(CNC(C)=O)c(CN4CCN(C=O)CC4)n4ncnc(N)c34)sc12 [Example 65, N-({4-Amino-7-[(4-formylpiperazin-1-yl)methyl]-5-(7-methoxy-5-methyl-1-benzothiophen-2-yl)pyrrolo[2,1-f][1,2,4]triazin-6-yl}methyl)acetamide formiate] | 13.9% | 
COc1cc(C)cc2cc(-c3c(CNC(C)=O)c(CN4CCN(C(C)=O)CC4)n4ncnc(N)c34)sc12 [Example 66, N-({7-[(4-Acetylpiperazin-1-yl)methyl]-4-amino-5-(7-methoxy-5-methyl-1-benzothiophen-2-yl)pyrrolo[2,1-f][1,2,4]triazin-6-yl}methyl)acetamide] | 15.8% | 
COCc1c(-c2cc3cc(C)cc(OC)c3s2)c2c(N)ncnn2c1C#N [Example 69, 4-Amino-6-(methoxymethyl)-5-(7-methoxy-5-methyl-1-benzothiophen-2-yl)pyrrolo[2,1-f][1,2,4]-triazine-7-carbonitrile] | 8.7% | 
CCOCc1c(-c2cc3cc(C)cc(OC)c3s2)c2c(N)ncnn2c1C#N [Example 70, 4-Amino-6-(ethoxymethyl)-5-(7-methoxy-5-methyl-1-benzothiophen-2-yl)pyrrolo[2,1-f][1,2,4]-triazine-7-carbonitrile] | 5.8% | 
COc1cc(C)cc2cc(-c3c(CN4CCNC(=O)C4)c(C#N)n4ncnc(N)c34)sc12 [Example 71, 4-Amino-5-(7-methoxy-5-methyl-1-benzothiophen-2-yl)-6-[(3-oxopiperazin-1-yl)methyl]pyrrolo[2,1-f][1,2,4]triazine-7-carbonitrile] | 0.1% | 
COc1cc(C)cc2cc(-c3c(CNCC(C)(C)O)c(C)n4ncnc(N)c34)sc12 [Example 78, 1-({[4-Amino-5-(7-methoxy-5-methyl-1-benzothiophen-2-yl)-7-methylpyrrolo[2,1-f][1,2,4]triazin-6-yl]methyl}amino)-2-methylpropan-2-ol] |  | 5.8%

Reference: patent US20220153745A1, “DISUBSTITUTED BENZOTHIENYL-PYRROLOTRIAZINES AND THEIR USE AS FGFR KINASE INHIBITORS” (Bayer Intellectual Property GmbH, priority 2011, published 2022)
